In patent publication EP2386565A2, “Compounds and methods to inhibit or augment an inflammatory response” (Cambridge Enterprise Ltd., priority 1999, dated 2000):
Residues, ends and D or L forms follow the SMILES beside them.

What was measured:
[1] = tested on: IL8 induced THP-1 migration; experiment: THP-1 trans-well migration assay, IL8 as chemoattractant; assay type: cell-based, human
Description: To determine whether an agent inhibits a chemokine-induced activity, such as macrophage recruitment, varying amounts of the agent are mixed with cells in the presence of a known chemoattractant. For example, a range of known concentrations of an agent, e.g., a chemokine peptide, is incubated with a defined number (e.g., 10^4 - […]) of human THP-1 monocyte cells in individual wells of the top compartment of a trans-well plate. Chemokine (such as MCP-1, MIP1α, IL8 or SDF-1α), at a concentration known to cause significant migration of THP-1 cells in the trans-well migration assay, is placed in the lower compartment (Figure 1). […] A standard curve consisting of a two-fold dilution series of THP-1 cells (in 29 µl) is prepared to accurately quantify the number of cells that have migrated. […] Absorbance of converted dye is measured at a wavelength of 595 nm using an ELISA plate reader. The number of migrated cells in each well is then determined by interpolation of the standard curve (see also Imai et al.,J. Biol. Chem., 272, 15036 (1997)). […]
After incubation, the cells were gently removed from the top of the filter with a pipette, 20 µl of 20 mM EDTA in PBS was added into each top well, and the mixture was incubated for 20 minutes at 4°C. […] A standard curve was prepared to accurately quantify the number of THP-1 cells that had migrated. […]

[2] = tested on: TGFβ1 induced human monocyte migration; experiment: Migration of freshly prepared peripheral blood monocytes, TGFβ1; assay type: cell-based
Description: Agents may also be screened in a chemotactic assay which employs human neutrophils, eosinophils, mast cells, basophils, platelets, lymphocytes or monocytes. For monocytes, 9 mls of fresh blood are transferred to a tube containing 1 ml of 3.8% sodium citrate, and left at room temperature for 15 minutes. Five mls of this anti-coagulated blood are carefully layered over 3.5 ml Polymorphprep® (Nycomed Pharma, Oslo), and centrifuged at 500 g for 35 minutes per the manufacturer's instructions. The top band at the sample/medium interface contains monocytes. The monocytes are carefully removed with a glass pipette, and reconstituted to the original volume (5 ml). The cells are washed with PBS plus 10% fetal calf serum, and centrifuged at 400 g for 10 minutes. The washing step is repeated three times before the cells are counted. Cells are resuspended at 1 × 10^7 cells/ml in RPMI-1640 + 10% fetal calf serum (FCS). The monocytes are cultured for two days at 37°C in a humidified atmosphere of 5% CO2-
On day 2, the cells are counted, spun down, and reconstituted to 1 × 10^7 cells/ml in Gey's balanced salt solution + 1 mg/ml bovine serum albumin (BSA). […]

CC[C@H](C)[C@H](NC(=O)[C@H](C)NC(=O)[C@H](CC(=O)O)NC(=O)[C@@H]1CCCN1C(=O)[C@H](CCC(N)=O)NC(=O)[C@H](C)N)C(=O)N[C@@H](CC(N)=O)C(=O)N[C@@H](C)C(=O)N1CCC[C@H]1C(=O)N[C@H](C(=O)N[C@H](C(=O)N[C@@H](CS)C(=O)N[C@@H](CS)C(=O)O)[C@@H](C)O)C(C)C [Peptide 1] (H-AQPDAINAPVTCC-OH; N-terminus and C-terminus assumed)
n.s.: % inhibition at 100 µM versus IL8 ([1]; THP-1 migration, agent at 100 µM, n.s. or dash = no statistically significant inhibition) | ED50 (µM) versus IL8 ([1]; inhibition of THP-1 migration, n.s. = not statistically significant) | % inhibition at 100 µM versus TGFβ1 [2]
